Reference: patent US20250127896A1, “CHIMERIC TIM4 RECEPTORS AND USES THEREOF” (CERO THERAPEUTICS HOLDINGS, INC., priority 2021, published 2025)

Tests used:
phosphatidylserine (PS) = assay: Recursive stimulation plate assay: IFN-γ on serial phosphatidylserine exposure; assay type: cell-based; settings: 3 serial rounds
From the text: FIGS. 19A-19C: CER T cells are activated and produce IFN-γ in response to phosphatidylserine engagement in a cell-free in vitro system. FIG. 19A: IFN-γ production in response phosphatidylserine (PS). IFN-γ production was induced in CER-1236 and CER-1234 T cells stimulated with PS (FIG. 19A), but not with phosphatidylethanolamine (PE) (FIG. 19B). […] FIG. 19C: CER1236 T cells are capable of recursive stimulation in vitro. Recursive IFN-γ induction with 3 serial stimulations at the indicated time points following a 24-hour rest after the first stimulation.
FIG. 43 is a schematic depicting assay design for measuring CER1236 reactivation in response to stimulus by repeated phosphatidylserine stimulation of CER1236 T cells and measurement of IFNγ production.
CER T-cell activation was assessed by measuring induction of IFN-gamma by plate- and cell-based assays. […] CER T cells were added and IFN-γ levels were measured 24 hours after ligand exposure by ELISA. EC50 concentrations were determined by nonlinear regression (agonist vs. response-variable slope (4 parameters)). […] Cell-based assay: cytokine induction was assessed by multiparametric ELISA using conditioned supernatants harvested after 120 hours from the cytotoxicity assay described below.

REC-1 cells = assay: T-cell activation markers PD-1 and 4-1BB in co-culture with REC-1 cells (flow cytometry); assay type: cell-based; settings: co-culture with REC-1 cells in the presence of 0.5 μM ibrutinib, 96 hours
Description: FIGS. 15A-15B: Induction of Cell-Surface Markers of T-Cell Activation in Ibrutinib-Treated Co-Cultures of CER1183 and CER1234 T cells and REC-1 Target Cells. Samples depicted in bar graphs from left to right, untransduced, CER-1183, and CER-1234. FIG. 15A: PD-1 expression in co-cultures. FIG. 15B: 4-1BB expression in co-cultures.
T-cell activation markers programmed death-1 (PD-1) and 4-1BB were evaluated on viable CD3+ T cells by flow cytometry using commercially available fluorochrome-conjugated antibodies. […] Assays were conducted 96 hours after initiation of co-culture of CER T cells with REC-1 cells.

CER-1236: chimeric Tim4 receptor: Tim4 binding domain-CD28tm-CD28-CD3z-TLR2 TIR, SEQ ID NO:19; tested as transduced T cells
IFN-γ response upon serial phosphatidylserine exposure (phosphatidylserine (PS)): elicited repeated IFN-γ response upon 3 serial rounds of exposure to phosphatidylserine

CER-1234: chimeric Tim4 receptor: Tim4 binding domain-CD28tm-CD28-TLR2 TIR-CD3z, SEQ ID NO:18; tested as transduced T cells
PD-1 and 4-1BB expression on the T-cell surface (REC-1 cells): increased PD-1 and 4-1BB expression
